Key:
Rattus norvegicus [1] = test: Reaction time in Hot plate test at a dose of 100 mg/kg perorally in rats after 180 min; type: functional; conditions: route oral
Rattus norvegicus [2] = test: Percent Edema variation in Carrageenan-induced paw edema test at a dose of 100 mg/kg perorally in rats after 180 min (p<0.01); type: functional; conditions: route oral
[3] = Minimum concentration which causes 50% of the Artemia salina larvae to lose mobility; type: ADME, organism-based; conditions: in vivo
Rattus norvegicus [4] = test: Percent Edema variation in Carrageenan-induced paw edema test at a dose of 100 mg/kg perorally in rats after 120 min; type: functional; conditions: route oral
Rattus norvegicus [5] = test: Reaction time in Hot plate test at a dose of 100 mg/kg perorally in rats after 120 min; type: functional; conditions: route oral
Rattus norvegicus [6] = test: Animals with Hyperemia in Carrageenan-induced paw edema test at a dose of 100 mg/kg perorally in rats; type: functional; conditions: route oral
Rattus norvegicus [7] = test: Number of writhings in Acetic acid Writhing test at a dose of 100 mg/kg perorally in rats(p<0.05); type: functional; conditions: route oral
Rattus norvegicus [8] = test: Percent Edema variation in Carrageenan-induced paw edema test at a dose of 100 mg/kg perorally in rats after 60 min; type: functional; conditions: route oral
Rattus norvegicus [9] = test: Analgesic activity was determined using acetic acid writing test at a dose of 100 mg/kg perorally in rats. (p<0.01); type: functional; conditions: route oral
Rattus norvegicus [10] = test: Animals with Ulcers in Carrageenan-induced paw edema test at a dose of 100 mg/kg perorally in rats; type: functional; conditions: route oral
[11] = Peroral dose causing 50% death of the mice population; type: ADME, organism-based; conditions: mouse, in vivo, po
Rattus norvegicus [12] = test: Reaction time in Hot plate test at a dose of 100 mg/kg perorally in rats after 60 min (p<0.05); type: functional; conditions: route oral
Rattus norvegicus [13] = test: Reaction time in Hot plate test at a dose of 100 mg/kg perorally in rats after 60 min; type: functional; conditions: route oral
Rattus norvegicus [14] = test: (§1) Animals with Ulcers in Carrageenan-induced paw edema test at a dose of 50 mg/kg perorally in rats; type: functional; conditions: route oral
Rattus norvegicus [15] = test: Analgesic activity was determined using acetic acid writing test at a dose of 100 mg/kg perorally in rats.; type: functional; conditions: route oral
Rattus norvegicus [16] = test: Number of writhings in Acetic acid Writhing test at a dose of 100 mg/kg perorally in rats; type: functional; conditions: route oral
Rattus norvegicus [17] = test: Percent Edema variation in Carrageenan-induced paw edema test at a dose of 100 mg/kg perorally in rats after 60 min (p<0.001); type: functional; conditions: route oral
Rattus norvegicus [18] = test: Percent Edema variation in Carrageenan-induced paw edema test at a dose of 50 mg/kg perorally in rats after 180 min; type: functional; conditions: route oral
Rattus norvegicus [19] = test: Percent Edema variation in Carrageenan-induced paw edema test at a dose of 100 mg/kg perorally in rats after 180 min; type: functional; conditions: route oral
Rattus norvegicus [20] = test: (§2) Animals with Hyperemia in Carrageenan-induced paw edema test at a dose of 50 mg/kg perorally in rats; type: functional; conditions: route oral
Rattus norvegicus [21] = test: Percent Edema variation in Carrageenan-induced paw edema test at a dose of 50 mg/kg perorally in rats after 120 min; type: functional; conditions: route oral
Rattus norvegicus [22] = test: Percent Edema variation in Carrageenan-induced paw edema test at a dose of 50 mg/kg perorally in rats after 60 min (p<0.01); type: functional; conditions: route oral
Rattus norvegicus [23] = test: Analgesic activity was determined using acetic acid writing test at a dose of 100 mg/kg perorally in rats.(p<0.05); type: functional; conditions: route oral
[24] = as §1; type: functional; conditions: route oral
[25] = (§3) Percent Edema variation in Carrageenan-induced paw edema test at a dose of 50 mg/kg perorally in rats after 60 min; type: functional; conditions: route oral
[26] = Percent Edema variation in Carrageenan-induced paw edema test at a dose of 50 mg/kg perorally in rats after 120 min (p<0.01); type: functional; conditions: route oral
Rattus norvegicus [27] = test: Percent Edema variation in Carrageenan-induced paw edema test at a dose of 100 mg/kg perorally in rats after 120 min (p<0.001); type: functional; conditions: route oral
[28] = Percent Edema variation in Carrageenan-induced paw edema test at a dose of 50 mg/kg perorally in rats after 180 min (p<0.001); type: functional; conditions: route oral
[29] = as §2; type: functional; conditions: route oral
Rattus norvegicus [30] = test: Percent Edema variation in Carrageenan-induced paw edema test at a dose of 100 mg/kg perorally in rats after 180 min (p<0.001); type: functional; conditions: route oral
Rattus norvegicus [31] = test: Reaction time in Hot plate test at a dose of 50 mg/kg perorally in rats after 60 min (p<0.01); type: functional; conditions: route oral
Rattus norvegicus [32] = test: as §3; type: functional; conditions: route oral
Rattus norvegicus [33] = test: Analgesic activity was determined using acetic acid writing test at a dose of 50 mg/kg perorally in rats. (p<0.01); type: functional; conditions: route oral
Rattus norvegicus [34] = test: Percent Edema variation in Carrageenan-induced paw edema test at a dose of 50 mg/kg perorally in rats after 180 min (p<0.01); type: functional; conditions: route oral
Rattus norvegicus [35] = test: Reaction time in Hot plate test at a dose of 50 mg/kg perorally in rats after 120 min (p<0.01); type: functional; conditions: route oral
Rattus norvegicus [36] = test: Reaction time in Hot plate test at a dose of 50 mg/kg perorally in rats after 180 min (p<0.01); type: functional; conditions: route oral
Rattus norvegicus [37] = test: Number of writhings in Acetic acid Writhing test at a dose of 50 mg/kg perorally in rats; type: functional; conditions: route oral

SMILES: Cc1cccc([C@H]2SCC(=O)N2CCN2C(=O)CS[C@H]2c2cccc(C)c2)c1
- Reaction time (Rattus norvegicus [1]): 11 s
- Edema variation (Rattus norvegicus [2]): -55.81%
- LC50 [3]: > 1000 µg/mL
- Edema variation (Rattus norvegicus [4]): -13.05%
- Reaction time (Rattus norvegicus [5]): 11.1 s
- Animals (Rattus norvegicus [6]): 80%
- No. of writhings (Rattus norvegicus [7]): 7.3
- Edema variation (Rattus norvegicus [8]): 25.6%
- inhibition in vivo at 100 mg/kg (Rattus norvegicus [9]): 64%
- Animals (Rattus norvegicus [10]): 20%
- LD50 [11]: > 1000 mg/kg
- Reaction time (Rattus norvegicus [12]): 18.4 s

SMILES: COc1cccc([C@H]2SCC(=O)N2CCN2C(=O)CS[C@H]2c2cccc(OC)c2)c1
- Reaction time (Rattus norvegicus [13]): 12.1 s
- Reaction time (Rattus norvegicus [1]): 10.7 s
- Animals (Rattus norvegicus [14]): 0%
- LC50 [3]: > 1000 µg/mL
- inhibition in vivo at 100 mg/kg (Rattus norvegicus [15]): 60%
- No. of writhings (Rattus norvegicus [16]): 8.1
- Edema variation (Rattus norvegicus [17]): -65.3%
- Edema variation (Rattus norvegicus [18]): 29.59%
- Edema variation (Rattus norvegicus [4]): -12.7%
- Reaction time (Rattus norvegicus [5]): 12 s
- Edema variation (Rattus norvegicus [19]): 20.1%
- Animals (Rattus norvegicus [6]): 20%
- Animals (Rattus norvegicus [10]): 0%
- Animals (Rattus norvegicus [20]): 20%
- Edema variation (Rattus norvegicus [21]): -8.15%
- LD50 [11]: > 1000 mg/kg
- Edema variation (Rattus norvegicus [22]): -38.29%

SMILES: COc1ccc([C@H]2SCC(=O)N2CCN2C(=O)CS[C@H]2c2ccc(OC)cc2)cc1
- Reaction time (Rattus norvegicus [1]): 15 s
- inhibition in vivo at 100 mg/kg (Rattus norvegicus [23]): 44%
- Animals [24]: 0%
- LC50 [3]: > 1000 µg/mL
- Edema variation [25]: 14.08%
- No. of writhings (Rattus norvegicus [16]): 11.3
- Edema variation [26]: -49%
- Reaction time (Rattus norvegicus [5]): 15.6 s
- Edema variation (Rattus norvegicus [27]): -75.9%
- Edema variation [28]: -66.97%
- Animals (Rattus norvegicus [6]): 40%
- Edema variation (Rattus norvegicus [8]): 20.23%
- Animals (Rattus norvegicus [10]): 0%
- Animals [29]: 20%
- Edema variation (Rattus norvegicus [30]): -96.42%
- LD50 [11]: > 1000 mg/kg
- Reaction time (Rattus norvegicus [12]): 17 s

SMILES: CCCCC1C(=O)N(c2ccccc2)N(c2ccccc2)C1=O [PHENYLBUTAZONE]
- Reaction time (Rattus norvegicus [31]): 28.3 s
- Animals (Rattus norvegicus [14]): 80%
- Edema variation (Rattus norvegicus [32]): -20.27%
- inhibition in vivo at 50 mg/kg (Rattus norvegicus [33]): 82%
- Edema variation (Rattus norvegicus [34]): -39.02%
- Reaction time (Rattus norvegicus [35]): 30 s
- Animals (Rattus norvegicus [6]): 100%
- Reaction time (Rattus norvegicus [36]): 31.7 s
- No. of writhings (Rattus norvegicus [37]): 3.6
- Edema variation (Rattus norvegicus [21]): -5.25%
- LD50 [11]: 300 mg/kg
